One data set deals with TRPV1 (Homo sapiens, UniProt Q8NER1). As to the kind of experiment: Selectivity calcium mobilization assay, TRPV1. Format: cell-based. As to conditions: agonist 100 nM Capsaicin. How it is done: (§1) For calcium mobilization assays, cells were seeded at 10,000 cells/well in 384-well plates coated with poly-D-lysine (MATRIX black/clear bottom #4332-CPL, Thermo Scientific, Waltham, MA, USA) in complete medium.Twenty-four hours after seeding, the plates were washed with Tyrode’s buffer with a Bio-Tek-ELx405 Microplate Washer (Merck Millipore; Billerica, MA, USA), and then 10 µl/well of a solution containing the fluorescent Ca^2+ indicator Fluo-4 NW dye was added. Cells were incubated for 1 h at room temperature before test compounds were added at 3X the concentration with respect to the final wanted concentration to be tested with a FLIPR TETRA system (Molecular Devices, Sunnyvale, CA, USA). Calcium mobilization was monitored over a period of 5 min. A second injection of 10 µl/well of a reference agonist (icilin or Cooling agent 10) at 4X concentration in assay buffer was performed using the FLIPR TETRA system. Of note, for selectivity assays, the following agonists were used: 10 μM AITC (allyl isothiocyanate) for TRPA1; 100 nM Capsaicin for TRPV1; and 20 nM GSK1016790A for TRPV4.
Chain of TRPV1 (Q8NER1 whole entry, species assumed): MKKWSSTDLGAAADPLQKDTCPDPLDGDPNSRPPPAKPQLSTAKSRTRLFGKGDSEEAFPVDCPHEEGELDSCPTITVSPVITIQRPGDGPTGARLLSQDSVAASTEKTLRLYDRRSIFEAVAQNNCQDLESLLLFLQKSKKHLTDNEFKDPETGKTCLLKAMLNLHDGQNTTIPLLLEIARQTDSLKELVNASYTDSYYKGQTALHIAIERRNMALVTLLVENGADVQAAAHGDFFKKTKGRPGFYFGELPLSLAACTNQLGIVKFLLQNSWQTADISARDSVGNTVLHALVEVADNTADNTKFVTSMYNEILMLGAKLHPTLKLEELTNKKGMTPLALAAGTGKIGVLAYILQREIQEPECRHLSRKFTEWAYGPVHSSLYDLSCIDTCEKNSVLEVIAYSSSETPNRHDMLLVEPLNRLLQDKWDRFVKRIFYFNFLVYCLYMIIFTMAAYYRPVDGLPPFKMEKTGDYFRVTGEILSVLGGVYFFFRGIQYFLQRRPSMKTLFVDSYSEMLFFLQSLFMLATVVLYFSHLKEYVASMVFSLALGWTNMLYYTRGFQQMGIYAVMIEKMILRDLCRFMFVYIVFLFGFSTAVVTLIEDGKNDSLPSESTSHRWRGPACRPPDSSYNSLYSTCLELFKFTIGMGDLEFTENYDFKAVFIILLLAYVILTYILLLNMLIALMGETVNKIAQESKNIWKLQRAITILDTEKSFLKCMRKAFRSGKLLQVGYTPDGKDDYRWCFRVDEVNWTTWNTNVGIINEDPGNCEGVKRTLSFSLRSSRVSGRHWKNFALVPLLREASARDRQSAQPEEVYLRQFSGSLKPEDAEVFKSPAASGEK

In data set [1] the target is T1, TRPM8 (Homo sapiens, UniProt Q7Z2W7).
T1 construct: expressed in transfected cells
T1 sequence (Q7Z2W7 whole entry): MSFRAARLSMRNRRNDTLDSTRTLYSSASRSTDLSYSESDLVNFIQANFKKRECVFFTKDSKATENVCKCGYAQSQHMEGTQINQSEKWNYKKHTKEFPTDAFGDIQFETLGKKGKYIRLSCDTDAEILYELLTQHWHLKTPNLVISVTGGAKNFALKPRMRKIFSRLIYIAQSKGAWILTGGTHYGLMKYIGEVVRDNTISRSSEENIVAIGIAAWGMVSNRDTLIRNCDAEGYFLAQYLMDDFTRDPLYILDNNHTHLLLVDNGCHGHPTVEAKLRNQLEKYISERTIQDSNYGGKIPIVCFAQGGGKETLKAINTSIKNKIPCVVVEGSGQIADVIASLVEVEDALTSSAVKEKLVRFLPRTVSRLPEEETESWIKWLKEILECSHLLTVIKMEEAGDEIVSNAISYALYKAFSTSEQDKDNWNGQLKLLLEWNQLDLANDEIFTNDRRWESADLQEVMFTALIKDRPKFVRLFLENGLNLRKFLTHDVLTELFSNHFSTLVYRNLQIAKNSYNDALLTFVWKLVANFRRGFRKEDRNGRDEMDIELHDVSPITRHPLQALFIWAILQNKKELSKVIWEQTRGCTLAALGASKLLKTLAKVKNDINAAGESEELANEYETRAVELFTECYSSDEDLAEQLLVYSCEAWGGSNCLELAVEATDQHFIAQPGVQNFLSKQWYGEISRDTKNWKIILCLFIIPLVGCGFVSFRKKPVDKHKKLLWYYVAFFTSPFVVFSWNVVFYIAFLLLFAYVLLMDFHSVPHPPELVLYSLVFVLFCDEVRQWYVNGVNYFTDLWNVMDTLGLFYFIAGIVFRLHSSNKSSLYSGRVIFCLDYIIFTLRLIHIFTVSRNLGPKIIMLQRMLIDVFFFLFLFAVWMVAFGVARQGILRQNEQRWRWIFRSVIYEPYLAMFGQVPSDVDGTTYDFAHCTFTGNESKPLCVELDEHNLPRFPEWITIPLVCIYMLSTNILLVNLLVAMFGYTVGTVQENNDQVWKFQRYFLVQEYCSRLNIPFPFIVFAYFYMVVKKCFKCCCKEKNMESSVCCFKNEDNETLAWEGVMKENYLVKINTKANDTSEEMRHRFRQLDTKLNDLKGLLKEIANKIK
As to the kind of experiment: Calcium mobilization assay (HTS and dose-response) on HEK-293/hTRPM8 cells. Format: cell-based. As to conditions: for IC50: calcium mobilization. As for the experimental part:
All experiments were performed on HEK-293/hTRPM8 cells stably transfected with the human TRPM8 gene, except for site-directed mutagenesis analysis, which was performed on transient transfectants. In details, HEK-293 cells (ATCC, Manassas, Virginia) were transfected with the pcDNA3/hTRPM8 vector by electroporation (300 Volts, 950 µF) then selected with medium containing 0,8 mg/ml G418 for 10–15 days. Then the stable transfected pool underwent two rounds of limiting dilutions, in eight 96 well plates at a cell density of 1 cell/well, in order to obtain pure clones. The best responder clone was selected based on its response to 1 mM menthol in calcium mobilization experiments. HEK-293/hTRPM8 cells were maintained in EMEM (Minimum Essential Medium Eagle with Earl’s salts Balanced Salt Solution, LONZA) supplemented with 2 mM Ultraglutamine1 (Lonza), 1% Penicillin/Streptomycin (LONZA), 10% of Fetal Bovine Serum (Euroclone) and 0,4 mg/mL G418 (InvivoGen).
as §1
After addition of the agonist, the fluorescence signal was recorded over the next 3 min. The bioactivity exerted by the compounds was expressed as a percentage of inhibition. The percentage scale is defined as follows: 100% inhibition was considered as the relative fluorescence units (RFUs) of the value of the MIN controls in the second injection (antagonist Capsazepine at IC100 = 50 µM) and 0% inhibition was considered as the RFU values of the value of the MAX controls in the second injection (Cooling agent 10 at EC80 = 30 µM). Data from four replicates were analyzed using GraphPad PRISM® software (version 5, GraphPad Software Inc.) to calculate the mean and standard error of the mean, to create sigmoidal concentration-response curves and to calculate IC50 values.
Background: A change in cytosolic calcium serves as a functional read-out for many receptors and channels.

Data set [2] deals with T1, TRPM8. As to the kind of experiment: Manual patch clamp (whole-cell voltage clamp). As to conditions: Cooling agent 10 50 μM, +40 mV, compound 1 300 nM. It counts as cell-based. As for the experimental part:
Sixteen hours before an experiment, cells were seeded onto poly-D-lysine-coated glass slides (150,000 cells each) and placed in 6-well plates in antibiotic-free medium. Immediately before experiments, the coated glass slides with seeded cells were washed five times with patch-clamp extracellular solution (145 mM NaCl, 10 mM EGTA, 10 mM HEPES, 10 mM Glucose, pH 7.4 with NaOH) and then placed into the recording chamber.
The electrophysiology study involved a whole-cell voltage clamp and intracellular solution consisting of 128 mM CsCl, 10 mM EGTA, 0.7 mM CaCl2, 3 mM MgCl2, 10 mM HEPES, and 5 mM Na2ATP at pH 7.2 with CsOH. For the pulse protocols, cells were held at +40 mV, and outward currents were acquired in uninterrupted recording mode. Data were recorded in standard whole-cell voltage experiments performed at room temperature. For data acquisition and further analysis, an EPC10 digitally controlled amplifier was utilized in combination with PATCHMASTER software (HEKA Electronics, Lambrect, Germany). The EPC10 provides automatic subtraction of capacitive currents by means of the prepulse. The data were filtered at 2.9 KHz (−3 dB, 4-pole Bessel lowpass) and digitized at 100 µs per point. […] Outward currents elicited by the addition of 50 μM cooling agent 10 or of cooling agent 10 (50 μM) plus compound 1 (300 nM) were recorded.
For orientation: In patch-clamp work, channel activity is measured electrically.

A short description of data set [3]: Preliminary PK/ADMET study. As to conditions: in vivo proof of concept; Table S3 not available. How it is done:
To assess the activity of compound 1 in preclinical models of painful urologic syndromes as OBS we used an isovolumetric rat bladder animal model. A preliminary PK/ADMET study was conducted to assess the behaviour of compound 1 in vivo (Table S3).

A further data set relates to TRPV3. As to the kind of experiment: Selectivity, TRPV3 as named in the discussion. It counts as cell-based.

“Also recorded” adds a separate entry of the source. Where two headings read alike, the source gives them in different places.

One may read the pIC50 as the negative decadic logarithm of the IC50, by convention in mol/L.

Turning to `Clc1c(OCCNCc2ccco2)ccc2ccccc12` [Compound 1], the “Activity on TRPV1” value at TRPV1 is “completely inactive; also recorded: didn’t have any effect”. For the same molecule, on TRPM8 [1] (HTS campaign activity determination, Fig. 4), the pIC50 was determined as 7.15. Also, the IC50 is 0.0417 µM on TRPM8 [1] (agonist Cooling agent 10, read-out: pIC50 with Cooling agent 10 (converted)) and 0.0589 µM on TRPM8 [1] (agonist icilin, read-out: pIC50 with icilin (converted)). Moreover, the “Effect on outward current” value on TRPM8 [2] is recorded as “completely abrogated electrical impulse transmission; also recorded: almost completely blocked”. Moreover, the “PK/ADME properties” value in data set [3] is reported as “adequate”. The “Effect on inhibition of TRPV3” value in the data set on TRPV3 is listed as “didn’t have any effect”.

Source of the values: paper PMC5591244, “Novel selective, potent naphthyl TRPM8 antagonists identified through a combined ligand- and structure-based virtual screening approach” (Scientific Reports, 2017).
